“And” between values parts separate entries of the source, which are not always exact repeats. Equal entries are not always repeated. Inconclusive results and toxic doses are left out.
Tested on: CD2F1 mice, L1210 leukemia ip, survival T/C
Assay: NCI In Vivo Anticancer Drug Screen. Data for tumor model L1210 Leukemia (intraperitoneal) in CD2F1 (CDF1) mice
Settings: endpoint: mean survival time, higher = longer survival
Outline: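 Compound-dosed mice with transplantable tumor versus matched vehicle controls; endpoint ratio T/C reported.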

[1] = dose: 100.0 mg/kg/injection, schedule: Q01DX001 (ip), vehicle: saline
[2] = dose: 200.0 mg/kg/injection, schedule: Q01DX001 (ip), vehicle: saline
[3] = dose: 400.0 mg/kg/injection, schedule: Q01DX001 (ip), vehicle: saline

Nc1nc(=O)n(C2OC(CO)C(O)C2O)cc1F (stereo not drawn) was tested. Which T/C (dose: 0.25 mg/kg/injection, schedule: Q01DX009 (ip), vehicle: saline) did it give?
Its T/C is 121 % of control.

What about the T/C (dose: 0.5 mg/kg/injection, schedule: Q01DX009 (sc), vehicle: saline) of the same molecule?
Its T/C is 97 % of control.

And the T/C (dose: 1.0 mg/kg/injection, schedule: Q03HX024 (ip), vehicle: saline)?
The T/C was 346 % of control.

What about the T/C (dose: 2.0 mg/kg/injection, schedule: Q01DX009 (sc), vehicle: saline) of the same molecule?
Its T/C is 121 % of control.

And the T/C (dose: 4.0 mg/kg/injection, schedule: Q01DX009 (ip), vehicle: saline)?
Its T/C is 157 % of control.

What about the T/C (dose: 4.0 mg/kg/injection, schedule: Q08DX002 (ip), vehicle: saline) of the same molecule?
The T/C was 106 % of control.

What about the T/C (dose: 8.0 mg/kg/injection, schedule: Q01DX009 (sc), vehicle: saline) of the same molecule?
The T/C was 152 % of control.

What about the T/C (dose: 8.0 mg/kg/injection, schedule: Q03HX024 (ip), vehicle: saline) of the same molecule?
The T/C was 540 % of control.

And the T/C (dose: 12.5 mg/kg/injection, schedule: Q01DX009 (ip), vehicle: saline)?
Its T/C is 218 % of control and 227 % of control.

What about the T/C (dose: 16.0 mg/kg/injection, schedule: Q01DX009 (ip), vehicle: saline) of the same molecule?
The T/C was 186 % of control and 194 % of control.

What about the T/C (dose: 16.0 mg/kg/injection, schedule: Q03HX016 (ip), vehicle: saline) of the same molecule?
The T/C was 248 % of control.

And the T/C (dose: 16.0 mg/kg/injection, schedule: Q03HX024 (oral), vehicle: saline)?
Its T/C is 327 % of control.

And the T/C (dose: 16.0 mg/kg/injection, schedule: Q08DX002 (ip), vehicle: saline)?
The T/C was 114 % of control.

And the T/C (dose: 18.8 mg/kg/injection, schedule: Q01DX008 (ip), vehicle: saline)?
The T/C was 189 % of control.

And the T/C (dose: 18.8 mg/kg/injection, schedule: Q01DX008 (oral), vehicle: saline)?
The T/C was 167 % of control.

What about the T/C (dose: 20.0 mg/kg/injection, schedule: Q01DX007 (ip), vehicle: saline) of the same molecule?
The T/C was 195 % of control.

What about the T/C (dose: 20.0 mg/kg/injection, schedule: Q01DX009 (ip), vehicle: saline) of the same molecule?
Its T/C is 187 % of control.

And the T/C (dose: 20.0 mg/kg/injection, schedule: Q04DX003 (ip), vehicle: saline)?
The T/C was 152 % of control.

And the T/C (dose: 25.0 mg/kg/injection, schedule: Q01DX009 (ip), vehicle: saline)?
The T/C was 215 % of control and 233 % of control.

What about the T/C (dose: 32.0 mg/kg/injection, schedule: Q01DX009 (ip), vehicle: saline) of the same molecule?
The T/C was 244 % of control.

And the T/C (dose: 32.0 mg/kg/injection, schedule: Q01DX009 (oral), vehicle: saline)?
The T/C was 163 % of control.

What about the T/C (dose: 32.0 mg/kg/injection, schedule: Q01DX009 (sc), vehicle: saline) of the same molecule?
Its T/C is 196 % of control.

And the T/C (dose: 32.0 mg/kg/injection, schedule: Q03HX008 (ip), vehicle: saline)?
The T/C was 120 % of control.

What about the T/C (dose: 37.5 mg/kg/injection, schedule: Q01DX008 (ip), vehicle: saline) of the same molecule?
The T/C was 169 % of control.

What about the T/C (dose: 37.5 mg/kg/injection, schedule: Q01DX008 (oral), vehicle: saline) of the same molecule?
The T/C was 175 % of control.

And the T/C (dose: 40.0 mg/kg/injection, schedule: Q01DX007 (ip), vehicle: saline)?
The T/C was 204 % of control.

And the T/C (dose: 40.0 mg/kg/injection, schedule: Q01DX009 (ip), vehicle: saline)?
The T/C was 229 % of control.

What about the T/C (dose: 40.0 mg/kg/injection, schedule: Q04DX003 (ip), vehicle: saline) of the same molecule?
Its T/C is 152 % of control.

What about the T/C (dose: 50.0 mg/kg/injection, schedule: Q01DX009 (ip), vehicle: saline) of the same molecule?
The T/C was 153 % of control and 166 % of control.

What about the T/C (dose: 64.0 mg/kg/injection, schedule: Q01DX009 (ip), vehicle: saline) of the same molecule?
Its T/C is 221 % of control.

What about the T/C (dose: 64.0 mg/kg/injection, schedule: Q01DX009 (oral), vehicle: saline) of the same molecule?
Its T/C is 176 % of control.

And the T/C (dose: 64.0 mg/kg/injection, schedule: Q03HX016 (ip), vehicle: saline)?
The T/C was 377 % of control.

And the T/C (dose: 64.0 mg/kg/injection, schedule: Q03HX024 (oral), vehicle: saline)?
Its T/C is 90 % of control.

And the T/C (dose: 64.0 mg/kg/injection, schedule: Q08DX002 (ip), vehicle: saline)?
Its T/C is 116 % of control.

What about the T/C (dose: 75.0 mg/kg/injection, schedule: Q01DX008 (oral), vehicle: saline) of the same molecule?
The T/C was 202 % of control.

And the T/C (dose: 75.0 mg/kg/injection, schedule: Q04DX003 (ip), vehicle: saline)?
Its T/C is 182 % of control.

And the T/C (dose: 80.0 mg/kg/injection, schedule: Q01DX007 (ip), vehicle: saline)?
Its T/C is 161 % of control.

And the T/C (dose: 80.0 mg/kg/injection, schedule: Q01DX009 (ip), vehicle: saline)?
Its T/C is 117 % of control.

And the T/C (dose: 80.0 mg/kg/injection, schedule: Q04DX003 (ip), vehicle: saline)?
Its T/C is 157 % of control.

What about the T/C (dose: 100.0 mg/kg/injection, schedule: Q01DX009 (ip), vehicle: saline) of the same molecule?
The T/C was 113 % of control and 115 % of control.

And the T/C (dose: 128.0 mg/kg/injection, schedule: Q01DX001 (ip), vehicle: saline)?
The T/C was 120 % of control.

What about the T/C (dose: 128.0 mg/kg/injection, schedule: Q01DX001 (sc), vehicle: saline) of the same molecule?
The T/C was 123 % of control.

And the T/C (dose: 128.0 mg/kg/injection, schedule: Q01DX009 (ip), vehicle: saline)?
The T/C was 114 % of control.

What about the T/C (dose: 128.0 mg/kg/injection, schedule: Q01DX009 (sc), vehicle: saline) of the same molecule?
Its T/C is 88 % of control.

What about the T/C (dose: 128.0 mg/kg/injection, schedule: Q04DX003 (ip), vehicle: saline) of the same molecule?
Its T/C is 163 % of control.

And the T/C (dose: 128.0 mg/kg/injection, schedule: Q04DX003 (oral), vehicle: saline)?
The T/C was 158 % of control.

And the T/C (dose: 150.0 mg/kg/injection, schedule: Q01DX001 (ip), vehicle: saline)?
Its T/C is 110 % of control.

What about the T/C (dose: 150.0 mg/kg/injection, schedule: Q01DX001 (oral), vehicle: saline) of the same molecule?
Its T/C is 115 % of control.

And the T/C (dose: 150.0 mg/kg/injection, schedule: Q04DX003 (ip), vehicle: saline)?
Its T/C is 151 % of control.

What about the T/C (dose: 200.0 mg/kg/injection, schedule: Q01DX009 (ip), vehicle: saline) of the same molecule?
Its T/C is 101 % of control.

And the T/C (dose: 256.0 mg/kg/injection, schedule: Q01DX009 (oral), vehicle: saline)?
The T/C was 109 % of control.

And the T/C (dose: 256.0 mg/kg/injection, schedule: Q04DX003 (oral), vehicle: saline)?
Its T/C is 171 % of control.

What about the T/C (dose: 300.0 mg/kg/injection, schedule: Q01DX001 (oral), vehicle: saline) of the same molecule?
The T/C was 115 % of control.

And the T/C (dose: 300.0 mg/kg/injection, schedule: Q04DX003 (ip), vehicle: saline)?
The T/C was 239 % of control.

What about the T/C (dose: 512.0 mg/kg/injection, schedule: Q01DX001 (sc), vehicle: saline) of the same molecule?
The T/C was 153 % of control.

And the T/C (dose: 512.0 mg/kg/injection, schedule: Q04DX003 (oral), vehicle: saline)?
The T/C was 206 % of control.

What about the T/C (dose: 600.0 mg/kg/injection, schedule: Q01DX001 (ip), vehicle: saline) of the same molecule?
The T/C was 172 % of control.

And the T/C (dose: 600.0 mg/kg/injection, schedule: Q04DX003 (ip), vehicle: saline)?
Its T/C is 259 % of control.

What about the T/C (dose: 1024.0 mg/kg/injection, schedule: Q01DX001 (ip), vehicle: saline) of the same molecule?
Its T/C is 161 % of control.

And the T/C (dose: 1024.0 mg/kg/injection, schedule: Q01DX001 (sc), vehicle: saline)?
Its T/C is 239 % of control.

And the T/C (dose: 1024.0 mg/kg/injection, schedule: Q04DX003 (ip), vehicle: saline)?
Its T/C is 286 % of control.

What about the T/C (dose: 1024.0 mg/kg/injection, schedule: Q04DX003 (oral), vehicle: saline) of the same molecule?
Its T/C is 122 % of control.

What about the T/C (dose: 1024.0 mg/kg/injection, schedule: Q08DX002 (ip), vehicle: saline) of the same molecule?
Its T/C is 250 % of control.

And the T/C (dose: 1200.0 mg/kg/injection, schedule: Q01DX001 (ip), vehicle: saline)?
The T/C was 183 % of control.

CC(C)OP(=O)(OCCO)C(Cl)Cl (stereo not drawn) was tested. Which T/C [1] did it give?
The T/C was 97 % of control.

What about the T/C [2] of the same molecule?
The T/C was 94 % of control.

And the T/C [3]?
The T/C was 96 % of control.

CC(=O)Oc1ccccc1C(CC(C)C)OC(C)=O (stereo not drawn) was tested. Which T/C [1] did it give?
Its T/C is 96 % of control.

What about the T/C [2] of the same molecule?
Its T/C is 96 % of control.

CNc1ccc(C(=O)O)cc1C(F)(F)F was tested. Which T/C [1] did it give?
Its T/C is 102 % of control.

What about the T/C [2] of the same molecule?
Its T/C is 101 % of control.

And the T/C [3]?
The T/C was 102 % of control.

With CC1=CSCC(=O)N1 as the molecule, how does the T/C (dose: 100.0 mg/kg/injection, schedule: Q04DX003 (ip), vehicle: saline with Tween-80) read?
The T/C was 101 % of control.

What about the T/C (dose: 200.0 mg/kg/injection, schedule: Q04DX003 (ip), vehicle: saline with Tween-80) of the same molecule?
Its T/C is 98 % of control.

And the T/C (dose: 400.0 mg/kg/injection, schedule: Q04DX003 (ip), vehicle: saline with Tween-80)?
The T/C was 108 % of control.

What does the source list for Cc1cc(NC(=O)Nc2cc(F)ccc2F)no1?
T/C (dose: 25.0 mg/kg/injection, schedule: Q01DX009 (ip), vehicle: Klucel (hydroxypropylcellulose) (HPC)): 101 % of control; T/C (dose: 50.0 mg/kg/injection, schedule: Q01DX009 (ip), vehicle: Klucel (hydroxypropylcellulose) (HPC)): 103 % of control; T/C (dose: 100.0 mg/kg/injection, schedule: Q01DX009 (ip), vehicle: Klucel (hydroxypropylcellulose) (HPC)): 101 % of control

Which results are given for C1=CN2CCCN3C=CC=c4ccc(c2c43)=C1?
T/C (dose: 7.5 mg/kg/injection, schedule: Q01DX001 (ip), vehicle: saline): 101 % of control; T/C (dose: 7.5 mg/kg/injection, schedule: Q04DX003 (ip), vehicle: saline): 97 % of control; T/C (dose: 15.0 mg/kg/injection, schedule: Q01DX001 (ip), vehicle: saline): 95 % of control; T/C (dose: 15.0 mg/kg/injection, schedule: Q04DX003 (ip), vehicle: saline): 105 % of control; T/C (dose: 30.0 mg/kg/injection, schedule: Q01DX001 (ip), vehicle: saline): 95 % of control; T/C (dose: 30.0 mg/kg/injection, schedule: Q04DX003 (ip), vehicle: saline): 97 % of control

Which T/C [1] does the source give for CS(=O)(=O)OCC(=O)NCCCCNC(=O)COS(C)(=O)=O here?
The T/C was 101 % of control.

What about the T/C [2] of the same molecule?
The T/C was 101 % of control.

With Nc1cc(=O)[nH]c(=S)[nH]1 as the molecule, how does the T/C (dose: 100.0 mg/kg/injection, schedule: Q04DX002 (ip), vehicle: saline with Tween-80) read?
Its T/C is 97 % of control.

What about the T/C (dose: 200.0 mg/kg/injection, schedule: Q04DX002 (ip), vehicle: saline with Tween-80) of the same molecule?
The T/C was 105 % of control.

Source: PubChem BioAssay AID256 (DTP/NCI, 2004)
